Paper PMC5564600 (Oncotarget, 2017)

Legend:
panel of 442 kinases [1] = target: T1, panel of 442 kinases (Homo sapiens, UniProt Q9NRM7); test: biochemical; format: binding; conditions: kinase LATS2; for remaining activity at 1 µM: read-out: % of control at 1 µM
T1 construct: purchased Ambit Biosciences (scanMAXX KINOMEscan)
T1 sequence (Q9NRM7 1-1088): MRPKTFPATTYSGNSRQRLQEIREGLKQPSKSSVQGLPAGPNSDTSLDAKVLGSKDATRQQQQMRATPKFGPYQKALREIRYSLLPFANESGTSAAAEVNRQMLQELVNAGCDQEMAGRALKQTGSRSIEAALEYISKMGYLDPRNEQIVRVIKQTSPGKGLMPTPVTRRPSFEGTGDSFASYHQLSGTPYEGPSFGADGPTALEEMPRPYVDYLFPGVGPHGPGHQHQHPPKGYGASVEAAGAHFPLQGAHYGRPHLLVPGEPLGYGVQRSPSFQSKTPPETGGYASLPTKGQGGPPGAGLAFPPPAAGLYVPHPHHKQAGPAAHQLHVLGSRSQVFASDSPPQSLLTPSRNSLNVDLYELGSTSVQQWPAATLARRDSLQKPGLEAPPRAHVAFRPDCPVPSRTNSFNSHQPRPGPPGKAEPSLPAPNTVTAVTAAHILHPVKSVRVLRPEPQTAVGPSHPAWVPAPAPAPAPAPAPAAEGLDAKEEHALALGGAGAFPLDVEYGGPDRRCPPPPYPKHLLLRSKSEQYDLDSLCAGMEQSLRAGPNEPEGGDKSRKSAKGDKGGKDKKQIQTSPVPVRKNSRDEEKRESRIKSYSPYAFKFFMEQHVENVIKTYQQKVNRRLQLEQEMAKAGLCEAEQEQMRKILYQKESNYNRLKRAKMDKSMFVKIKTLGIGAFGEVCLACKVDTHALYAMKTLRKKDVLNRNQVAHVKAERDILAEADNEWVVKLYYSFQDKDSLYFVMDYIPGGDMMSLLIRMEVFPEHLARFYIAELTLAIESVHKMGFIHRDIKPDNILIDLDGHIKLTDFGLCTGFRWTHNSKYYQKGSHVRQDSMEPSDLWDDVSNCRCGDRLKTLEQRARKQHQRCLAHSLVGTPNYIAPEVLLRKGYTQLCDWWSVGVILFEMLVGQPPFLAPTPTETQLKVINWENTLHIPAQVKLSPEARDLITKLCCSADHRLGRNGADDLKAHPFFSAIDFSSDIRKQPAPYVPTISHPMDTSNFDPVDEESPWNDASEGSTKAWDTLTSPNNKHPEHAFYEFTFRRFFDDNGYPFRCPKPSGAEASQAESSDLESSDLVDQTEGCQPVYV

panel of 442 kinases [2] = target: T2, panel of 442 kinases (Homo sapiens, UniProt Q9UL54); test: biochemical; format: binding; conditions: kinase TAOK2; for remaining activity at 1 µM: read-out: TAOK2 (% of control at 1 µM)
T2 construct: purchased Ambit Biosciences (scanMAXX KINOMEscan)
T2 sequence (Q9UL54 1-1235): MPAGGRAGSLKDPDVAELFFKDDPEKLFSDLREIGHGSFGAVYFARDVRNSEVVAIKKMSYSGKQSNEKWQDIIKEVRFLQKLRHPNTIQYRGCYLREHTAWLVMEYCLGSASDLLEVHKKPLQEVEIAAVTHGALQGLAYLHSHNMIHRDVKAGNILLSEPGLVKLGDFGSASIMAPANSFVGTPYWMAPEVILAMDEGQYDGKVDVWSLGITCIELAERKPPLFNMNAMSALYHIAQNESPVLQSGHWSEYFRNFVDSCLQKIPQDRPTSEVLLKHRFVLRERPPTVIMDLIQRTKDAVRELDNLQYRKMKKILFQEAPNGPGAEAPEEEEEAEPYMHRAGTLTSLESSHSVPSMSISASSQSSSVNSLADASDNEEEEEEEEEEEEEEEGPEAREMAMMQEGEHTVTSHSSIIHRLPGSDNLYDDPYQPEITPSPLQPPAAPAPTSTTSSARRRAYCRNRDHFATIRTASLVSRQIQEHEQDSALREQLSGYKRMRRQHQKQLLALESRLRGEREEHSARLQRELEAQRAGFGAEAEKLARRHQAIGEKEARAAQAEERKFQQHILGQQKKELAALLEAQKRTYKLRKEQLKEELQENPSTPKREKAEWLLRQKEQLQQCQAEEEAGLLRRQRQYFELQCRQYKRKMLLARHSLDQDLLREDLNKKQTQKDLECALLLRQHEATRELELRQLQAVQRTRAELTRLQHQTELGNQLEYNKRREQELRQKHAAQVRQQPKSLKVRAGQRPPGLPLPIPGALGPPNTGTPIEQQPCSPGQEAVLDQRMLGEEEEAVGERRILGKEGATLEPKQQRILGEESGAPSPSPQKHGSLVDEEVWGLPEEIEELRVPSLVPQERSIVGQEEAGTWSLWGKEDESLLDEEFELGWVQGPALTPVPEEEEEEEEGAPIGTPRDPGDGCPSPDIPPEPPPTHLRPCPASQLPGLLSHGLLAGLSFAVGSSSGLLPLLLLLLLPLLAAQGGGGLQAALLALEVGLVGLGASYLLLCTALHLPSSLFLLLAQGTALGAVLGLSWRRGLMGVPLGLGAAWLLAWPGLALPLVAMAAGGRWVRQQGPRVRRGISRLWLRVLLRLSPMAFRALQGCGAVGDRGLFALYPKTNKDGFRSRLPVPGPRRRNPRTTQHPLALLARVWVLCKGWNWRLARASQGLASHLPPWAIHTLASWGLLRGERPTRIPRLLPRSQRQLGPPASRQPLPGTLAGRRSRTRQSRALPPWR

Row | SMILES | remaining activity at 1 µM (panel of 442 kinases [1]) [%] | remaining activity at 10 µM (panel of 442 kinases [1]; 10 µM, read-out: % of control at 10 µM) [%] | remaining activity at 1 µM (panel of 442 kinases [2]) [%] | remaining activity at 10 µM (panel of 442 kinases [2]; 10 µM, read-out: TAOK2 (% of control at 10 µM)) [%]
1 | Nc1cc(C(F)(F)F)c(-c2cc(N3CCOCC3)nc(N3CCOCC3)n2)cn1 [Buparlisib] | 75 | 100 | 87 | 84
2 | Cn1c(=O)n(-c2ccc(C(C)(C)C#N)cc2)c2c3cc(-c4cnc5ccccc5c4)ccc3ncc21 [Dactolisib, 2-methyl-2-[4-(3-methyl-2-oxo-8-quinolin-3-yl-2,3-dihydroimidazo[4,5-c]quinolin-1-yl)-phenyl] propionitrile] | 100 |  | 98 | 
3 | COc1ncc(-c2ccc3nccc(-c4ccnnc4)c3c2)cc1NS(=O)(=O)c1ccc(F)cc1F [Omipalisib] | 100 |  | 100 | 
4 | FC(F)c1nc2ccccc2n1-c1nc(N2CCOCC2)nc(N2CCOCC2)n1 [ZSTK474, 2-(difluoromethyl)-1-[4,6-di(4-morpholinyl)-1,3,5-triazin-2-yl]-1H-benzimidazole] | 100 |  | 81 | 
